The values below come from article PMC8282797, “Strictly regulated agonist-dependent activation of AMPA-R is the key characteristic of TAK-653 for robust synaptic responses and cognitive improvement” (Scientific Reports, 2021).

One may read the Tmax as the time at which the peak concentration occurs. Broadly, the half-life is the time needed for the level to fall by half in the phase considered.

Data set [1] deals with naïve rats. Briefly: Novel object recognition (NOR) test. As to conditions: for NORT (effective doses): summary. Format: in vivo, rat. The protocol: NOR tests were performed using male Long-Evans rats at 6 weeks old as previously described, with some modifications. On day 1, rats were allowed to habituate to the empty test box (a gray-colored polyvinyl chloride box (40 × 40 × 50 cm)) for 10 min individually. Testing comprised two 3-min trials called the acquisition trial and the retention trial that were separated by 48 h inter-trial intervals (ITIs). On day 2, in the acquisition trial, rats were allowed to explore two identical objects (A1 and A2) for 3 min. On day 4, in the retention trial, rats were again allowed to explore a familiar object (A3) and a novel object (B) for 3 min. The object exploration was defined as rats' licking, sniffing or touching the object with forelimbs while sniffing. TAK-653 or AMPA was orally or intraperitoneally, respectively, 2 h or 0.5 h prior to the acquisition and the retention trials. The NDI was calculated using the following equation: novel object interaction/total interaction × 100 (%).

For data set [2], the system named is AMPA-R. The experiment in a line: Whole-cell patch clamp recording in acute PFC slices (AMPA-R-mediated EPSPs). Format: cell-based, rat. Also on record: key to Synaptic EPSP response: -: No effect or slight effect; +: Potent; ++: Very potent. The note with it: for Synaptic EPSP response: summary grade; for Spike number and EPSP duration after switch from LY451646 (30 μM): 10 μM. Here is the method: Coronal PFC slices were prepared from male Sprague–Dawley rats (10- to 14-day-old). The slices including layer V PFC pyramidal neurons were perfused at a flow rate of 1–2 ml/min with recording aCSF containing the following: 124 mM NaCl, 5 mM KCl, 1.2 mM NaH2PO4, 1.5 mM MgCl2, 2.5 mM CaCl2, 10 mM glucose, 24 mM NaHCO3 bubbled with carbogen (95% O2; 5% CO2). Current clamp recordings at holding potential of approximately − 65 mV with constant current were carried out at 32–33 °C using a pipette filled with an intracellular solution consisting of: 140 mM K-gluconate, 4 mM KCl, 10 mM HEPES, 0.2 mM EGTA, 4 mM MgATP, 0.3 mM Na2GTP, pH 7.3 with KOH in the presence of bicuculline (20 μM), CGP52422 (10 μM), and APV (50 μM) to block GABAA and B and NMDA receptors, respectively. Methods are described in the Supplementary Information.
Coronal prefrontal cortex (PFC) slices were prepared from male Sprague-Dawley rats (10- to 14-day-old). Animals were sacrificed following acute decapitation, and their brain was quickly removed and placed in an ice-cold modified artificial cerebrospinal fluid (aCSF) of the following composition: 92 mM N-methyl-D-glucamine (NMDG), 2.5 mM KCl, 1.25 mM NaH2PO4, 30 mM NaHCO3, 20 mM HEPES, 25 mM glucose, 2 mM thiourea, 5 mM Na-ascorbate, 3 mM Na-pyruvate, 0.5 mM CaCl2, and 10 mM MgSO4. The pH of the solution was titrated to 7.3-7.4 with concentrated HCl. Coronal slices were cut at a thickness of 300 μm with using a linear slicer PRO7 (Dosaka EM, Kyoto, Japan). Slices were initially recovered for ≤ 15 min at 34°C and then transferred to a holding chamber containing HEPES holding aCSF (92 mM NaCl, 2.5 mM KCl, 1.25 mM NaH2PO4, 30 mM NaHCO3, 20 mM HEPES, 25 mM glucose, 2 mM thiourea, 5 mM Na-ascorbate, 3 mM Na-pyruvate, 2 mM CaCl2 and 2 mM MgSO4) at room temperature for at least 1 h before starting the recording. The slices were then transferred to the recording chamber mounted on a FN1 microscope (Nikon, Tokyo, Japan), in which they were submerged and perfused at a flow rate of 1-2 ml/min with recording aCSF containing the following: 124 mM NaCl, 5 mM KCl, 1.2 mM NaH2PO4, 1.5 mM MgCl2, 2.5 mM CaCl2, 10 mM glucose, 24 mM NaHCO3. All aCSF solutions were continuously bubbled with carbogen (95% O2; 5% CO2). Differential interference contrast (DIC) microscopy (C10639, Hamamatsu, Japan) was used to visualize pyramidal neurons in the PFC. Patch pipettes (5-6 MΩ) were prepared from borosilicate capillary glass using a micropipette puller PC-10 (NARISHIGE, Tokyo, Japan). Current clamp recordings were carried out at 32-33°C using a pipette filled with intracellular solution consisting of: 140 mM K-gluconate, 4 mM KCl, 10 mM HEPES, 0.2 mM EGTA, 4 mM MgATP, 0.3 mM Na2GTP, pH 7.3 with KOH in the presence of bicuculline (20 μM), CGP52422 (10 μM), and APV (50 μM) to block GABAA and B and NMDA receptors, respectively. Signals were recorded using a Multiclamp 700B amplifier (Molecular Devices, LLC, Orleans Drive Sunnyvale, CA), digitized using a Digidata 1440A interface board, filtered between 2 kHz, sampled at 10 kHz, and analyzed with pClamp10 software. Layer V PFC pyramidal neurons were recorded at holding potential of approximately –65 mV with constant current. A hyperpolarizing step (–20 pA) prior to each stimulation was used to monitor any changes in access resistance. Postsynaptic potentials were evoked by constant current single stimulation pulses (100 μs, 10-100 μA) delivered with a 20-s interstimulus interval using monopolar stimulating electrodes positioned in layer I.

Data set [3] in a line: Pharmacokinetics in monkeys. The format is in vivo. The note with it: monkey, plasma, po, 0.03 mg/kg.

SMILES strings stand for the structures. “Also recorded” adds a separate entry of the source. Read-outs that look alike come from different tables or passages of the source.

On to `Cc1onc(O)c1CC(N)C(=O)O` (stereo not drawn) [AMPA, alpha-amino-3-hydroxy-5-methyl-4-isoxazole-propionic acid], for which the “Cognitive performance in the NOR test” value in data set [1] (0.3 to 3 mg/kg, i.p.) is on record as “did not improve”. Further, the “NORT (effective doses)” value in data set [1] is recorded as “No effect”. Moreover, the “Membrane potentials of recorded neurons” value in data set [2] (0.3 μM) is “increased”. In addition, the “Polysynaptic EPSP duration and evoked spike number” value in data set [2] (0.3 μM, 5 min, membrane held at −65 mV) is reported as “reduced; also recorded: diminished the suprathreshold response”. In data set [2], the “Synaptic EPSP response” value is “─”.

As to `CC1=CN2CCS(=O)(=O)N=C2C(c2ccc(OC3CCCCC3)cc2)=N1` [TAK-653, 9-[4-(Cyclohexyloxy)phenyl]-7-methyl-3,4-dihydropyrazino[2,1-c][1,2,4]thiadiazine 2,2-dioxide], the “Novelty discrimination index (NDI)” value in data set [1] (0.03, 0.1 and 0.3 mg/kg, p.o., 2 h prior to trials) is “significantly improved”. Further, in data set [1] (p.o., rats), the “Dose improving visual learning and memory in NOR test” value was not below 0.03 mg/kg. Besides, the “NORT (effective doses)” value in data set [1] was “Effective (0.03, 0.1, 0.3)”. Besides, in data set [3], the Tmax is 8 h and the half-life is 9.4 ± 3.8 h. Moreover, in data set [2], the “Membrane potentials of recorded neurons” value is given as “did not increase”; the “Spike number and EPSP duration after switch from LY451646 (30 μM)” value is “a clear increase”; the “Synaptic EPSP response” value is listed as “++”. In addition, the Suprathreshold response entry in data set [2] (10 μM for 10 min) is “enhanced the suprathreshold response”. The “Spike number and EPSP duration after switch from LY451646 (30 μM)” value in data set [2] (listed as TAK653) is “further augmentation of spike number”. Besides, in data set [2] (0.3 to 30 μM, 10 min bath application), the “Suprathreshold polysynaptic EPSPs (evoked spikes, EPSP duration)” value was “enhanced”.
